# Source: ChEMBL document CHEMBL3217458, “Discovery of a novel benzopyranyl compound as a potent in vitro and in vivo osteogenic agent” (Medchemcomm, 2011)
# Active and inactive are the calls of the source. No cut-off for these calls is given here.
# How the values were obtained:
# C3H 10T1/2 [1] = assay: Induction of osteogenesis in mouse C3H10T1/2 cells assessed as increase in alkaline phosphatase activity at 2 uM after 72 hrs by ALP assay; assay type: functional
# C3H 10T1/2 [2] = assay: Induction of osteogenesis in mouse C3H10T1/2 cells assessed as increase in alkaline phosphatase activity after 72 hrs by ALP assay; assay type: functional, cell-based
# [3] = Cytotoxicity against human CaSki cells at 0.1 to 25 uM after 24 hrs by WST-1 assay; assay type: cell-based; conditions: ca-ski
# Mus musculus [4] = assay: Induction of osteogenesis in ovariectomized C57BL/6 mouse model assessed as increase in […] at 5 to 10 mg/kg/day, po administered 5 days per week for 4 weeks by dual-energy X-ray absorptiometry relative to vehicle-treated control; assay type: functional
# Mus musculus [5] = assay: Induction of osteogenesis in ovariectomized C57BL/6 mouse model assessed as increase in bone volume at 10 mg/kg/day, po administered 5 days per week for 4 weeks by micro-CT analysis relative to vehicle-treated control; assay type: functional, organism-based
# Mus musculus [6] = assay: Induction of osteogenesis in ovariectomized C57BL/6 mouse model assessed as reduction in trabecular space at 10 mg/kg/day, po administered 5 days per week for 4 weeks by micro-CT analysis relative to vehicle-treated control; assay type: functional, organism-based; conditions: Trabecula
# C3H 10T1/2 [7] = assay: Induction of osteogenesis in mouse C3H10T1/2 cells using BCIP as substrate assessed as increase in alkaline phosphatase activity at 0.25 to 4 uM after 72 hrs by nitroblue tetrazolium chloride staining-based assay; assay type: functional, cell-based
# HepG2 = assay: Cytotoxicity against human HepG2 cells at 0.1 to 25 uM after 24 hrs by WST-1 assay; assay type: cell-based; conditions: hepg2, 24 h
# Mus musculus [8] = assay: Induction of osteogenesis in ovariectomized C57BL/6 mouse model assessed as increase in trabecular number at 10 mg/kg/day, po administered 5 days per week for 4 weeks by micro-CT analysis relative to vehicle-treated control; assay type: functional, organism-based; conditions: Trabecula
# C2C12 = assay: Cytotoxicity against mouse C2C12 cells at 0.1 to 25 uM after 24 hrs by WST-1 assay; assay type: cell-based; conditions: c2c12, 24 h
# C3H 10T1/2 [9] = assay: Induction of osteogenesis in mouse C3H10T1/2 cells assessed as calcium deposition at 4 uM by Alizarin Red S staining-based assay; assay type: functional, cell-based
# [10] = Cytotoxicity against mouse 3T3L1 cells at 0.1 to 25 uM after 24 hrs by WST-1 assay; assay type: cell-based; conditions: 3t3-l1, 24 h
# C3H 10T1/2 [11] = assay: Activation of proto-oncogene protein Wnt/beta-catenin signaling (unknown origin) transfected in mouse C3H10T1/2 cells assessed as increase in transcriptional activity at 2 uM after 48 hrs by TOPflash luciferase reporter gene assay; assay type: cell-based; conditions: Homo sapiens
# PC-3 = assay: Cytotoxicity against human PC3 cells at 0.1 to 25 uM after 24 hrs by WST-1 assay; assay type: cell-based; conditions: pc-3, 24 h
# HeLa = assay: Cytotoxicity against human HeLa cells at 0.1 to 25 uM after 24 hrs by WST-1 assay; assay type: cell-based
# DU-145 = assay: Cytotoxicity against human DU145 cells at 0.1 to 25 uM after 24 hrs by WST-1 assay; assay type: cell-based; conditions: du-145, 24 h
# L6 = assay: Cytotoxicity against rat L6 cells at 0.1 to 25 uM after 24 hrs by WST-1 assay; assay type: cell-based; conditions: l6, 24 h
SMILES,fold change (FC) (C3H 10T1/2 [1]),Activity (C3H 10T1/2 [2]),also measured
CC1(C)C=C(c2cc(Cl)cc(Cl)c2)c2ccc(O)cc2O1,1.5,,
CC1(C)CC(c2cccs2)c2ccc(O)cc2O1 (stereo unspecified),,inactive,
CC(=O)c1cccc(C2=CC(C)(C)Oc3cc(O)ccc32)c1,1.9,,
O=[N+]([O-])c1cccc(C2=CC3(CCCC3)Oc3cc(O)ccc32)c1,0.6,,
CC1(C)CC(c2ccc([N+](=O)[O-])cc2)c2cc(Cl)cc(-c3cccc(O)c3)c2O1 (stereo unspecified),,inactive,
CN(C)c1cccc(C2=CC(C)(C)Oc3cc(O)ccc32)c1,1.6,,
CC1(C)C=C(c2ccccc2[N+](=O)[O-])c2ccc(O)cc2O1,1.2,,
CC1(C)C=C(c2cccc([N+](=O)[O-])c2)c2ccc(O)cc2O1,6.8,Dose-dependent effect,Activity [3]: Non-toxic; Activity (Mus musculus [4]): 37%; Activity (Mus musculus [5]): Active; Activity (Mus musculus [6]): Active; Activity (C3H 10T1/2 [7]): Dose-dependent effect; Activity (HepG2): Non-toxic; Activity (Mus musculus [8]): Active; Activity (C2C12): Non-toxic; Activity (C3H 10T1/2 [9]): Active; Activity [10]: Non-toxic; Activity (C3H 10T1/2 [11]): Active; Activity (PC-3): Non-toxic; Activity (HeLa): Non-toxic; Activity (DU-145): Non-toxic; Activity (L6): Non-toxic
CN(C)c1ccc(C2=CC(C)(C)Oc3cc(O)ccc32)cc1,0.7,,
Cc1n[nH]c(C)c1C1CC(C)(C)Oc2cc(O)ccc21 (stereo unspecified),,inactive,
CC1(C)CC(c2cccnc2)c2ccc(O)cc2O1 (stereo unspecified),,inactive,
CC1(C)CC(c2ccccc2)c2ccc(O)cc2O1 (stereo unspecified),,inactive,
CCOC(=O)CCC1(C)C=C(c2cccc([N+](=O)[O-])c2)c2ccc(O)cc2O1 (stereo unspecified),1.4,,
CC1(C)C=C(c2ccc([N+](=O)[O-])cc2)c2ccc(O)cc2O1,3.1,,
CC1(C)C=C(c2ccc(N)cc2)c2ccc(O)cc2O1,3.9,,
CC1(C)CC(c2ccoc2)c2ccc(O)cc2O1 (stereo unspecified),,inactive,
COc1ccc2c(c1O)OC(C)(C)C=C2c1cccc([N+](=O)[O-])c1,1.5,,
CC1(C)C=C(c2cccc(N)c2)c2ccc(O)cc2O1,2.5,,
CC1(C)C=C(c2cccc(O)c2)c2ccc(O)cc2O1,1.4,,
CC1(C)CC(c2ccc([N+](=O)[O-])cc2)c2cc(-c3cccc(O)c3)ccc2O1 (stereo unspecified),,inactive,
